Test results reported in ChEMBL document CHEMBL1144896 (2003).

How the values were obtained:
Type in all cases: functional
BJ [1] = assay: Compound was tested for human telomerase reverse transcriptase-SEAP (hTERT-SEAP) activity in immortalized hTERT-BJI at 21 uM concentration
NCI-H1299 [2] = assay: hTERT-SEAP (Human telomerase reverse transcriptase-SEAP) activity in non-small cell lung cancer H1299 cell at 210.0 uM concentration and level of cell viability determined in MTT assay
NCI-H1299 [3] = assay: Compound was tested for human telomerase reverse transcriptase-SEAP (hTERT-SEAP) activity in non-small cell lung cancer H1299 cell at 21 uM concentration
NCI-H1299 [4] = assay: hTERT-SEAP (Human telomerase reverse transcriptase-SEAP) activity in non-small cell lung cancer H1299 cell at 21 uM concentration and level of cell viability determined in MTT assay
BJ [5] = assay: hTERT-SEAP (Human telomerase reverse transcriptase-SEAP) activity in immortalized hTERT-BJI at 21 uM concentration and level of cell viability determined in MTT assay
NCI-H1299 [6] = assay: hTERT-SEAP (Human telomerase reverse transcriptase-SEAP) activity in non-small cell lung cancer H1299 cell at 2.1 uM concentration and level of cell viability determined in MTT assay
BJ [7] = assay: hTERT-SEAP (Human telomerase reverse transcriptase-SEAP) activity in immortalized hTERT-BJI at 210.0 uM concentration and level of cell viability determined in MTT assay
NCI-H1299 [8] = assay: Compound was tested for human telomerase reverse transcriptase-SEAP (hTERT-SEAP) activity in non-small cell lung cancer H1299 cell at 210.0 uM concentration
BJ [9] = assay: Compound was tested for human telomerase reverse transcriptase-SEAP (hTERT-SEAP) activity in immortalized hTERT-BJI at 2.1 uM concentration
NCI-H1299 [10] = assay: Compound was tested for human telomerase reverse transcriptase-SEAP (hTERT-SEAP) activity in non-small cell lung cancer H1299 cell at 2.1 uM concentration
BJ [11] = assay: Compound was tested for human telomerase reverse transcriptase-SEAP (hTERT-SEAP) activity in immortalized hTERT-BJI at 210.0 uM concentration
NCI-H1299 [12] = assay: Compound was tested for human telomerase reverse transcriptase-SEAP (hTERT-SEAP) activity in non-small cell lung cancer H1299 cell at 2.2 uM concentration
NCI-H1299 [13] = assay: Compound was tested for human telomerase reverse transcriptase-SEAP (hTERT-SEAP) activity in non-small cell lung cancer H1299 cell at 220.0 uM concentration
NCI-H1299 [14] = assay: hTERT-SEAP (Human telomerase reverse transcriptase-SEAP) activity in non-small cell lung cancer H1299 cell at 2.2 uM concentration and level of cell viability determined in MTT assay
BJ [15] = assay: Compound was tested for human telomerase reverse transcriptase-SEAP (hTERT-SEAP) activity in immortalized hTERT-BJI at 22 uM concentration
BJ [16] = assay: Compound was tested for human telomerase reverse transcriptase-SEAP (hTERT-SEAP) activity in immortalized hTERT-BJI at 220.0 uM concentration
BJ [17] = assay: hTERT-SEAP (Human telomerase reverse transcriptase-SEAP) activity in immortalized hTERT-BJI at 220.0 uM concentration and level of cell viability determined in MTT assay
NCI-H1299 [18] = assay: hTERT-SEAP (Human telomerase reverse transcriptase-SEAP) activity in non-small cell lung cancer H1299 cell at 22 uM concentration and level of cell viability determined in MTT assay
BJ [19] = assay: hTERT-SEAP (Human telomerase reverse transcriptase-SEAP) activity in immortalized hTERT-BJI at 22 uM concentration and level of cell viability determined in MTT assay
BJ [20] = assay: hTERT-SEAP (Human telomerase reverse transcriptase-SEAP) activity in immortalized hTERT-BJI at 2.2 uM concentration and level of cell viability determined in MTT assay
NCI-H1299 [21] = assay: hTERT-SEAP (Human telomerase reverse transcriptase-SEAP) activity in non-small cell lung cancer H1299 cell at 220.0 uM concentration and level of cell viability determined in MTT assay
BJ [22] = assay: Compound was tested for human telomerase reverse transcriptase-SEAP (hTERT-SEAP) activity in immortalized hTERT-BJI at 2.2 uM concentration
NCI-H1299 [23] = assay: Compound was tested for human telomerase reverse transcriptase-SEAP (hTERT-SEAP) activity in non-small cell lung cancer H1299 cell at 22 uM concentration
NCI-H1299 [24] = assay: Compound was tested for human telomerase reverse transcriptase-SEAP (hTERT-SEAP) activity in non-small cell lung cancer H1299 cell at 2.3 uM concentration
BJ [25] = assay: hTERT-SEAP (Human telomerase reverse transcriptase-SEAP) activity in immortalized hTERT-BJI at 230.0 uM concentration and level of cell viability determined in MTT assay
BJ [26] = assay: Compound was tested for human telomerase reverse transcriptase-SEAP (hTERT-SEAP) activity in immortalized hTERT-BJI at 230.0 uM concentration
BJ [27] = assay: hTERT-SEAP (Human telomerase reverse transcriptase-SEAP) activity in immortalized hTERT-BJI at 23 uM concentration and level of cell viability determined in MTT assay
BJ [28] = assay: Compound was tested for human telomerase reverse transcriptase-SEAP (hTERT-SEAP) activity in immortalized hTERT-BJI at 23 uM concentration
NCI-H1299 [29] = assay: hTERT-SEAP (Human telomerase reverse transcriptase-SEAP) activity in non-small cell lung cancer H1299 cell at 230.0 uM concentration and level of cell viability determined in MTT assay
NCI-H1299 [30] = assay: Compound was tested for human telomerase reverse transcriptase-SEAP (hTERT-SEAP) activity in non-small cell lung cancer H1299 cell at 23 uM concentration
NCI-H1299 [31] = assay: Compound was tested for human telomerase reverse transcriptase-SEAP (hTERT-SEAP) activity in non-small cell lung cancer H1299 cell at 230.0 uM concentration
NCI-H1299 [32] = assay: hTERT-SEAP (Human telomerase reverse transcriptase-SEAP) activity in non-small cell lung cancer H1299 cell at 2.3 uM concentration and level of cell viability determined in MTT assay
NCI-H1299 [33] = assay: hTERT-SEAP (Human telomerase reverse transcriptase-SEAP) activity in non-small cell lung cancer H1299 cell at 23 uM concentration and level of cell viability determined in MTT assay

| SMILES | Relative SEAP activity (BJ [1]) | Relative viability (NCI-H1299 [2]) | Relative SEAP activity (NCI-H1299 [3]) | Relative viability (NCI-H1299 [4]) | Relative viability (BJ [5]) | Relative viability (NCI-H1299 [6]) | Relative viability (BJ [7]) | Relative SEAP activity (NCI-H1299 [8]) | Relative SEAP activity (BJ [9]) | Relative SEAP activity (NCI-H1299 [12]) | Relative SEAP activity (NCI-H1299 [13]) | Relative viability (NCI-H1299 [14]) | Relative SEAP activity (BJ [15]) | Relative SEAP activity (BJ [16]) | Relative viability (NCI-H1299 [18]) | Relative viability (BJ [19]) | Relative viability (BJ [20]) | Relative viability (NCI-H1299 [21]) | Relative SEAP activity (BJ [22]) | Relative SEAP activity (NCI-H1299 [23]) | other results |
| --- | --- | --- | --- | --- | --- | --- | --- | --- | --- | --- | --- | --- | --- | --- | --- | --- | --- | --- | --- | --- | --- |
| Cc1ccccc1C(=O)Oc1cccc2c1C(=O)c1cccc(OC(=O)c3ccccc3C)c1C2=O | 120% | 45% | 91% | 36% | 82% | 72% | 39% | 90% | 129% |  |  |  |  |  |  |  |  |  |  |  | Relative SEAP activity (NCI-H1299 [10]): 97%; Relative SEAP activity (BJ [11]): 94% |
| Cc1cccc(C(=O)Oc2cccc3c2C(=O)c2cccc(OC(=O)c4cccc(C)c4)c2C3=O)c1 | 124% | 29% | 116% | 28% | 54% | 26% | 47% | 110% | 141% |  |  |  |  |  |  |  |  |  |  |  | Relative SEAP activity (NCI-H1299 [10]): 104%; Relative SEAP activity (BJ [11]): 86% |
| Cc1ccc(C(=O)Oc2cccc3c2C(=O)c2cccc(OC(=O)c4ccc(C)cc4)c2C3=O)cc1 | 126% | 32% | 95% | 33% | 98% | 61% | 56% | 95% | 130% |  |  |  |  |  |  |  |  |  |  |  | Relative SEAP activity (NCI-H1299 [10]): 98%; Relative SEAP activity (BJ [11]): 99% |
| O=C1c2cccc(SCCc3ccccc3)c2C(=O)c2cccc(SCCc3ccccc3)c21 |  |  |  |  |  |  |  |  |  | 108% | 97% | 93% | 109% | 110% | 51% | 54% | 91% | 27% | 119% | 102% | Relative viability (BJ [17]): 35% |
| O=C(Cc1ccccc1)Oc1cccc2c1C(=O)c1cccc(OC(=O)Cc3ccccc3)c1C2=O | 125% | 30% | 101% | 53% | 97% | 91% | 64% | 142% | 129% |  |  |  |  |  |  |  |  |  |  |  | Relative SEAP activity (NCI-H1299 [10]): 98%; Relative SEAP activity (BJ [11]): 100% |
| CCCCCC(=O)Oc1cccc2c1C(=O)c1cccc(OC(=O)CCCCC)c1C2=O |  |  |  |  |  |  |  |  |  |  |  |  |  |  |  |  |  |  |  |  | Relative SEAP activity (NCI-H1299 [24]): 91%; Relative viability (BJ [25]): 62%; Relative SEAP activity (BJ [26]): 124%; Relative viability (BJ [27]): 98%; Relative SEAP activity (BJ [28]): 149%; Relative viability (NCI-H1299 [29]): 106%; Relative SEAP activity (NCI-H1299 [30]): 95%; Relative SEAP activity (NCI-H1299 [31]): 95%; Relative viability (NCI-H1299 [32]): 117%; Relative viability (NCI-H1299 [33]): 114% |
| Nc1ccc(Sc2cccc3c2C(=O)c2cccc(Sc4ccc(N)cc4)c2C3=O)cc1 |  |  |  |  |  |  |  |  |  | 100% | 84% | 103% | 97% | 26% | 76% | 65% | 86% | 42% | 97% | 95% |  |
| O=C1c2cccc(SCCCCCCO)c2C(=O)c2cccc(SCCCCCCO)c21 | 128% | 36% | 100% | 94% | 70% | 99% | 40% | 68% | 140% |  |  |  |  |  |  |  |  |  |  |  | Relative SEAP activity (NCI-H1299 [10]): 110%; Relative SEAP activity (BJ [11]): 75% |
| Nc1cccc(Sc2cccc3c2C(=O)c2cccc(Sc4cccc(N)c4)c2C3=O)c1 |  |  |  |  |  |  |  |  |  | 106% | 101% | 92% | 41% | 8% | 68% | 9% | 104% | 32% | 118% | 109% | Relative viability (BJ [17]): 4% |
| Cc1ccc(Sc2cccc3c2C(=O)c2cccc(Sc4ccc(C)cc4)c2C3=O)cc1 |  |  |  |  |  |  |  |  |  | 117% | 90% | 84% | 109% | 87% | 41% | 77% | 111% | 25% | 132% | 103% | Relative viability (BJ [17]): 22% |
| O=C1c2cccc(SCc3ccccc3)c2C(=O)c2cccc(SCc3ccccc3)c21 |  |  |  |  |  |  |  |  |  | 97% | 100% | 83% | 112% | 87% | 44% | 98% | 121% | 34% | 117% | 100% | Relative viability (BJ [17]): 47% |
| O=C(Oc1cccc2c1C(=O)c1cccc(OC(=O)c3ccccc3)c1C2=O)c1ccccc1 |  |  |  |  |  |  |  |  |  | 88% | 86% | 99% | 122% | 84% | 60% | 87% | 103% | 33% | 137% | 94% | Relative viability (BJ [17]): 51% |
